According to US10562912B2 (C&C Research Laboratories, priority 2013, dated 2020):

Experiments:
Type in all cases: cell-based
LNCaP = assay: Cell growth inhibition assay, prostate cancer cell line LNCaP (medium with 10 ng/mL IL-6); conditions: Homo sapiens, medium supplemented with 10 ng/mL of IL-6, 10,000 cells/well
STAT3 = target: T1, STAT3 (Homo sapiens, UniProt P40763); assay: STAT3 reporter gene assay (luciferase), LNCaP stable cell line (pSTAT3-TA-luc), IL-6 stimulation
T1 construct: plasmid pSTAT3-TA-luc), which contains a stably operating STAT3 promoter; endogenous in cells
T1 sequence (P40763 whole entry): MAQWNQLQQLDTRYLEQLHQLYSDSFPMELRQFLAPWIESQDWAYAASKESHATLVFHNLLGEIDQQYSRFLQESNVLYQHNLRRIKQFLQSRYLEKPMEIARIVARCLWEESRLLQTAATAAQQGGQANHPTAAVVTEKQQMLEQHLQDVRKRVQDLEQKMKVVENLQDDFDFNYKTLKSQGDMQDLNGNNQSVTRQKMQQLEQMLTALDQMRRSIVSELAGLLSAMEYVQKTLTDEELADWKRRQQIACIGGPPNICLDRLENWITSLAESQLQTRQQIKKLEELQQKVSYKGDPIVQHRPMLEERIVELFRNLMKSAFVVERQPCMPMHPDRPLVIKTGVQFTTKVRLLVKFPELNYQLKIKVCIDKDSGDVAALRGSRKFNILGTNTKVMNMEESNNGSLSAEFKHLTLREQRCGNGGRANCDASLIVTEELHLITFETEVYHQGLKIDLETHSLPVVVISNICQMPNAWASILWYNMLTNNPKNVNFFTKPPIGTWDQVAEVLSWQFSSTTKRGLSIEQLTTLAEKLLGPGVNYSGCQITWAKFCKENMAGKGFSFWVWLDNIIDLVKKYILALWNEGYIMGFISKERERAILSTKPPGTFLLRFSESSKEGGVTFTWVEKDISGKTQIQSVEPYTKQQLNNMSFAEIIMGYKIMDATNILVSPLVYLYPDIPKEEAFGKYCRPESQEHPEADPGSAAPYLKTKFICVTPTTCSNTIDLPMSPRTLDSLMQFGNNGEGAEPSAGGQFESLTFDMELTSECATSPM
Summary of the method: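 LNCaP cells stably carrying pSTAT3-TA-luc, in RPMI1640 with 3% DCC-FBS, were treated with compound and then stimulated with 10 ng/mL IL-6 for 24–48 h at 37 °C. Luciferase activity was measured in lysates. A parallel plate measured viability by CellTiter-Glo, with stimulated 0.1% DMSO wells as the positive control.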

MDA-MB-231 = assay: Cell growth inhibition assay, breast cancer cell line MDA-MB-231; conditions: Homo sapiens; MDA-MB-231 breast cancer cell line, 5,000 cells/well
Protocol: The inhibitory effects of the compounds of the present invention against the growth of cancer cells were evaluated as shown below. The cancer cell lines including stomach cancer cell line (AGS), breast cancer cell lines (MDA-MB-231, MDA-MB-468, and BT-549), prostate cancer cell lines (LNCaP and DU-145), colon cancer cell line (HCT116), ovarian cancer cell line (SW626), liver cancer cell line (Hep3B), kidney cancer cell line (ACHN), lung cancer cell line (NCI-H23) and blood cancer cell lines (HEL92.1.7 and U266) were cultured under the protocol provided by each supplier. A medium supplemented with 10 ng/mL of IL-6 was used for LNCaP, a prostate cancer cell line, when treated with a drug. Each type of cells to be used in experiments were sub-cultured in a 96-well plate by counting the exact number of cells using Tali™ Image-based Cytometer (Life Technologies). In a 96-well plate, AGS, HCT116, and DU-145 were employed with 3,000 cells/well; NCI-H23, SW626, Hep3B, ACHN, BT-549, MDA-MB-231, HEL92.1.7, and U266 were employed with 5,000 cells/well; and LNCaP and MDA-MB-468 were employed with 10,000 cells/well. The cells were treated with the compounds listed in Examples which were diluted in various concentrations. Upon completion of the compounds treatment, AGS, HCT116, SW626, DU145, NCI-H23, Hep3B, ACHN, BT-549, LNCaP, HEL92.1.7, and U266 cells were cultured at 37° C. under 5% CO2 for from 72 to 96 hours, and MDA-MB-231 and MDA-MB-468 cells were cultured at 37° C. in air for from 72 to 96 hours. Subsequently, the cells were observed under microscope and drug precipitation and particular findings were investigated and recorded. And then, the 96-well plate was placed at room temperature for 30 minutes, added with 20 μL/well of CellTiter-Glo solution (Cat No. G7573, Promega) and shaken for 10 minutes, followed by being subjected to the measurement using PHERAstar™ microplate reader (BMG LABTECH) according to the supplier's general luminometer protocol. Wells where only culture liquid added without cell plating were used as a negative control, whereas wells where culture liquid containing 0.1% DMSO instead of the compounds listed in Examples were used as a positive control.

Structure (SMILES)	IC50 (LNCaP)	IC50 (STAT3)	IC50 (MDA-MB-231)
CC(C)(c1ccc(F)cc1)c1cccc(NC(=O)c2sc3cc(NS(C)(=O)=O)ccc3c2Cl)c1 [Example 110, 3-chloro-N-(3-(2-(4-fluorophenyl)propan-2-yl)phenyl)-6-(methylsulfonamido)benzo[b]thiophene-2-carboxamide]	> 10 µM	4.3 µM	3.3 µM
CS(=O)(=O)Nc1ccc2cc(C(=O)Nc3cc(C(=O)N4CCCCC4)cc(-c4ccc(F)cc4F)c3)[nH]c2c1 [Example 320, N-(2′,4′-difluoro-5-(piperidine-1-carbonyl)-[1,1′-biphenyl]-3-yl)-6-(methylsulfonamido)-1H-indole-2-carboxamide]	> 10 µM	6.2 µM	> 10 µM
CC(C)(c1ccccc1)c1cccc(NC(=O)c2cc3ccc(NS(C)(=O)=O)cc3[nH]2)c1 [Example 2, 6-(methylsulfonamido)-N-(3-(2-phenylpropan-2-yl)phenyl)-1H-indole-2-carboxamide]	5.3 µM	0.2 µM	0.14 µM
O=C(Nc1cccc(-c2ccc(F)cc2F)c1)c1cc2cc(OC(F)(F)F)ccc2[nH]1 [Example 239, N-(2′,4′-difluoro-[1,1′-biphenyl]-3-yl)-5-(trifluoromethoxy)-1H-indole-2-carboxamide]	8.3 µM	> 10 µM	> 10 µM
CNS(=O)(=O)Nc1ccc2cc(C(=O)Nc3cccc(C(C)(C)c4ccc(F)cc4)c3)[nH]c2c1 [Example 5, N-(3-(2-(4-fluorophenyl)propan-2-yl)phenyl)-6-((N-methylsulfamoyl)amino)-1H-indole-2-carboxamide]	4.7 µM	1.2 µM	1.2 µM
CC(O)(c1ccccc1)c1cccc(NC(=O)c2cc3ccc(NS(C)(=O)=O)cc3[nH]2)c1 (stereo not drawn) [Example 435, N-(3-(1-hydroxy-1-phenylethyl)phenyl)-6-(methylsulfonamido)-1H-indole-2-carboxamide]	> 10 µM	5.8 µM	4.3 µM
CS(=O)(=O)Nc1ccc2cc(C(=O)Nc3cc(-c4cccnc4)cc(-c4ccc(F)cc4F)c3)[nH]c2c1 [Example 357, N-(2′,4′-difluoro-5-(pyridin-3-yl)-[1,1′-biphenyl]-3-yl)-6-(methylsulfonamido)-1H-indole-2-carboxamide]	6.6 µM	1.7 µM	1.2 µM
C#Cc1cccc(S(=O)(=O)c2cccc(NC(=O)c3cc4ccc(NS(C)(=O)=O)cc4[nH]3)c2)c1 [Example 416]	9 µM	6 µM	2.6 µM
CS(=O)(=O)Nc1ccc2cc(C(=O)Nc3cc(-c4cnc(N)nc4)cc(-c4ccc(F)cc4F)c3)[nH]c2c1 [Example 361, N-(5-(2-aminopyrimidin-5-yl)-2′,4′-difluoro-[1,1′-biphenyl]-3-yl)-6-(methylsulfonamido)-1H-indole-2-carboxamide]	> 10 µM	> 10 µM	> 10 µM
CS(=O)(=O)Nc1ccc2cc(C(=O)Nc3cc(-c4cccc(O)n4)cc(-c4ccc(F)cc4F)c3)[nH]c2c1 [Example 384, N-(2′,4′-difluoro-5-(6-hydroxypyridin-2-yl)-[1,1′-biphenyl]-3-yl)-6-(methylsulfonamido)-1H-indole-2-carboxamide]	> 10 µM	> 10 µM	> 10 µM
C#Cc1cc(NC(=O)c2cc3ccc(NS(C)(=O)=O)cc3[nH]2)cc(-c2ccc(F)cc2F)c1 [Example 365, N-(5-ethynyl-2′,4′-difluoro-[1,1′-biphenyl]-3-yl)-6-(methylsulfonamido)-1H-indole-2-carboxamide]	2.8 µM	0.4 µM	0.32 µM
Cc1c(C(=O)Nc2cccc(-c3ccc(F)cc3F)c2)sc2ccc(NS(C)(=O)=O)cc12 [Example 243, N-(2′,4′-difluoro-[1,1′-biphenyl]-3-yl)-3-methyl-5-(methylsulfonamido)benzo[b]thiophene-2-carboxamide]	6.4 µM	7.2 µM	1.6 µM
COc1cc(NC(=O)c2sc3cc(NS(C)(=O)=O)ccc3c2C)cc(-c2ccc(F)cc2F)c1 [Example 316, N-(2′,4′-difluoro-5-methoxy-[1,1′-biphenyl]-3-yl)-3-methyl-6-(methylsulfonamido)benzo[b]thiophene-2-carboxamide]	7 µM	3.6 µM	4.6 µM

Stronger by IC50 (LNCaP), values ahead:

IC50 (LNCaP)	IC50 (STAT3)	IC50 (MDA-MB-231)	Structure (SMILES)
0.35 µM	0.19 µM	0.086 µM	CS(=O)(=O)Nc1ccc2sc(C(=O)Nc3cc(OC(F)F)cc(C4(c5ccc(F)cc5)CC4)c3)cc2c1 [Example 429, N-(3-(difluoromethoxy)-5-(1-(4-fluorophenyl)cyclopropyl)phenyl)-5-(methylsulfonamido)benzo[b]thiophene-2-carboxamide]
0.11 µM	0.028 µM	0.024 µM	COc1cc(OC(F)(F)F)cc(C(C)(C)c2cc(NC(=O)c3cc4cc(NS(C)(=O)=O)ccc4s3)cc(OC(F)F)c2)c1 [Example 41, N-(3-(difluoromethoxy)-5-(2-(3-methoxy-5-(trifluoromethoxy)phenyl)propan-2-yl)phenyl)-5-(methylsulfonamido)benzo[b]thiophene-2-carboxamide]
2.7 µM	0.31 µM	0.41 µM	COc1cc2cc(C(=O)Nc3cccc(-c4ccc(F)cc4F)c3)[nH]c2cc1NS(C)(=O)=O [Example 236, N-(2′,4′-difluoro-[1,1′-biphenyl]-3-yl)-5-methoxy-6-(methylsulfonamido)-1H-indole-2-carboxamide]
2.3 µM	0.48 µM	0.32 µM	CS(=O)(=O)Nc1ccc2cc(C(=O)Nc3cc(-c4ccc(F)nc4)cc(-c4ccc(F)cc4F)c3)[nH]c2c1 [Example 349, N-(2′,4′-difluoro-5-(6-fluoropyridin-3-yl)-[1,1′-biphenyl]-3-yl)-6-(methylsulfonamido)-1H-indole-2-carboxamide]
0.92 µM	0.14 µM	0.19 µM	CC(C)(c1ccc(F)cc1)c1cc(NC(=O)c2cc3ccc(NS(C)(=O)=O)cc3[nH]2)cc(OC(F)F)c1 [Example 17, N-(3-(difluoromethoxy)-5-(2-(4-fluorophenyl)propan-2-yl)phenyl)-6-(methylsulfonamido)-1H-indole-2-carboxamide]
0.39 µM	0.046 µM	0.016 µM	CC(C)(c1cccc(NC(=O)c2cc3cc(NS(C)(=O)=O)ccc3s2)c1)c1cccc(OC(F)(F)F)c1 [Example 37, 5-(methylsulfonamido)-N-(3-(2-(3-(trifluoromethoxy)phenyl)propan-2-yl)phenyl)benzo[b]thiophene-2-carboxamide]
2.4 µM	0.76 µM	0.44 µM	Cn1cccc1-c1cc(NC(=O)c2cc3ccc(NS(C)(=O)=O)cc3[nH]2)cc(-c2ccc(F)cc2F)c1 [Example 353, N-(2′,4′-difluoro-5-(1-methyl-1H-pyrrol-2-yl)-[1,1′-biphenyl]-3-yl)-6-(methylsulfonamido)-1H-indole-2-carboxamide]
0.41 µM	0.13 µM	0.085 µM	COc1cc(NC(=O)c2cc3cc(NS(C)(=O)=O)ccc3s2)cc(C2(c3cc(OC)cc(OC(F)(F)F)c3)CC2)c1 [Example 427, N-(3-methoxy-5-(1-(3-methoxy-5-(trifluoromethoxy)phenyl)cyclopropyl)phenyl)-5-(methylsulfonamido)benzo[b]thiophene-2-carboxamide]
1.3 µM	0.46 µM	0.38 µM	CS(=O)(=O)Nc1ccc2cc(C(=O)Nc3cccc(C4(c5ccc(F)cc5)CC4)c3)[nH]c2c1 [Example 425, N-(3-(1-(4-fluorophenyl)cyclopropyl)phenyl)-6-(methylsulfonamido)-1H-indole-2-carboxamide]
0.36 µM	0.059 µM	0.008 µM	CC(C)(c1ccc(F)cc1)c1cccc(NC(=O)c2cc3cc(NS(C)(=O)=O)ccc3s2)c1 [Example 26, N-(3-(2-(4-fluorophenyl)propan-2-yl)phenyl)-5-(methylsulfonamido)benzo[b]thiophene-2-carboxamide]
